From patent USRE40862E1, “Gossypolone for the treatment of cancer” (priority 1990, dated 2009)
Several values for one entry are separate records, joined by “and”; a condition that tells them apart may be missing. Equal entries are not always repeated. Entries after “also recorded” stand apart in the source; their conditions may differ.

Tests used:
[1] = clinical; conditions: human, in vivo
Description: (§1) Gossypol acetic acid, 10 mg compressed tablet, was given orally at a dose of 20 mg/d which was increased by 10 mg/d every three days to a dose of 50 mg/d.

[2] = test system: SW-13 cells; test: In vitro gossypol treatment: SW-13 cell proliferation; format: cell-based, human; conditions: 5 and 50 uM gossypol, prolonged exposure (1-6 days)
Description: SW-13 cells were seeded (1×10^4 cells) into 25 cm^2 tissue culture flasks in Dulbecco's minimal Eagle's medium supplemented with fetal calf serum (10%), 100 ug/ml streptomycin, 100 units/ml penicillin, and 2 mM glutamine.
Sw-13 cells were seeded in a 25-cm^2 tissue culture flask (Costar, Cambridge, Mass.) at densities of 1×10^4 cells/5 ml of Dulbecco's minimal Eagle's medium, supplemented with 10% fetal calf serum, 100 ug/ml streptomycin, 100 units/ml penicillin, and 2 mM glutamine. The cells were grown in a humidified, 37° C. incubator with a 5% CO2/95% air atmosphere. A gossypol stock solution in absolute ethanol was added to the culture medium to yield final concentrations of 0, 0.5, 5, and 50 uM gossypol with a 0.1% final ethanol concentration. After 1, 2, 4, or 6 days of incubation, the culture medium containing a few floating cells was removed. Adherent cells were typsinized (0.1% trypsin, w/v) and counted using a hemocytometer. Cell viability was determined by trypan blue exclusion.

[3] = test system: metastatic adrenocortical carcinoma; test: Phase 1 clinical trial of oral gossypol for adrenocortical cancer
Description: as §1

[4] = test system: cancers; conditions: cited from earlier work
[5] = test system: SW-13 human adrenocortical carcinoma; test: Gossypol in SW-13 tumor bearing nude mice (preexisting tumors); format: in vivo; conditions: for Mean tumor size (mean ± SE): length×width; for Total deaths / Prevalence of tumor: preexisting tumors
Description: Nude mice (Charles River, Kingston, N.Y.) weighing 20-35 g were caged in a temperature-controlled (26-28° C.), 12 h/12 h light/dark animal room. A microporous cage bonnet served as an effective protective barrier between the animal and the outside environment. In addition, the room was continuously purged with […]. The cages, feeders, and water bottles were designed to make standard mouse chow and water readily available while minimizing the opportunity for the transfer of communicable pathogens.
Another experiment was designed wherein 48 adult male nude mice weighing 25-35 g were injected s.c. with 2×10^6 SW-13 cells. One month later, the animals were divided into two groups of 24. There were 7 nude mice without visible tumors in each group. The gossypol treated animals received 30 mg gossypol acetic acid/kg body weight/day whereas control animals were fed an equal volume of carrier. Body weigths and tumor sizes (lengths×width, cm^2) were measured weekly. During the 12th week of treatment, 5 control animals died. Since it appeared unlikely that the remaining control animals would survive for another week, they were then sacrificed. Autopsies were performed on all animals including those that died during the study period. Internal organs were examined for the presence of gross tumor.
Data are expressed as the mean±SD unless otherwise indicated. Statistical comparisons were made using an unpaired Student's t test.
In this experiment, nude mice had been given s.c. injections of SW-13 adrenocortical carcinoma 1 month prior to initiation of the treatment with either gossypol or carrier.

[6] = mouse; Rao et al. (1985); cited from earlier work
[7] = test system: adrenocortical carcinoma; test: Previous therapy of the patient with adrenocortical carcinoma; format: in vivo, human; conditions: person, hepatic metastases, before gossypol
[8] = patient 26, lung, liver, dose 70, 3 weeks
[9] = patient 27, abdomen, pelvis, dose 50, 6 weeks
[10] = patient 34, abdomen, liver, dose 40-50, 12 weeks
[11] = patient 52, abdomen, dose 40, 6 weeks
[12] = person, after three weeks, gossypol acetic acid tablets 20 to 50 mg/d oral

**Q.** With `Cc1cc2c(C(C)C)c(O)c(O)c(C=O)c2c(O)c1-c1c(C)cc2c(C(C)C)c(O)c(O)c(C=O)c2c1O` [Gossypol, gossypol] as the compound, how does the concentration at 6 weeks ([1]; female, oral, 40 mg/d) read?
**A.** The concentration at 6 weeks was 4.44 ng/mL.

**Q.** And the concentration at 3 weeks ([1]; male)?
**A.** Its concentration at 3 weeks is 10.2 ng/mL.

**Q.** What about the concentration at 12 weeks ([1]; male, oral) of the same compound?
**A.** Its concentration at 12 weeks is 2.91 ng/mL.

**Q.** And the concentration at 6 weeks ([1]; male, oral, 50 mg/d)?
**A.** The concentration at 6 weeks was 2.29 ng/mL.

**Q.** And the “effect on proliferation of SW-13 cells” value [2]?
**A.** Its value is “inhibited cell proliferation”.

**Q.** What about the “tumor responses among the five patients” value ([3]; five patients of Table 3) of the same compound?
**A.** Its value is “two exhibited partial tumor responses, one has stable disease, and two showed tumor progression”.

**Q.** And the “dose above which toxicity begins to occur in humans” value ([3]; humans)?
**A.** The value was 1 to 2 mg/kg/day.

**Q.** What about the “dose at which the anti-tumor effect occurs in humans” value ([3]; humans, approximately one tenth of dose effective in animals) of the same compound?
**A.** Its value is ~1 mg/kg/day.

**Q.** What about the “side effects in treatment of human cancers” value ([3]; humans, compared to conventional therapies) of the same compound?
**A.** The value was “mild fatigue, muscle tremor, dry mouth, dry skin, and occasional nausea”.

**Q.** What about the Response [3, 8] of the same compound?
**A.** Its Response is “Pro-”.

**Q.** And the “Side Effects” value [3, 8]?
**A.** Its value is “Xerostomia; also recorded: Nausea; also recorded: Trans-”.

**Q.** And the Response [3, 9]?
**A.** The Response was “Pro-”.

**Q.** What about the “Side Effects” value [3, 9] of the same compound?
**A.** The value was “Xerostomia; also recorded: Fatigue”.

**Q.** And the Response [3, 10]?
**A.** Its Response is “Stabili-”.

**Q.** And the “Side Effects” value [3, 10]?
**A.** The value was “Xerostomia; also recorded: Fatigue; also recorded: Nausea”.

**Q.** What about the Response [3, 11] of the same compound?
**A.** The Response was “Partial”.

**Q.** And the “Side Effects” value [3, 11]?
**A.** The value was “Xerostomia; also recorded: Fatigue; also recorded: Nausea”.

**Q.** What about the “side effects experienced during gossypol treatment” value ([3]; person, 20 to 50 mg/d oral) of the same compound?
**A.** The value was “fatigue, xerostomia, tremor, and trasnminitis”.

**Q.** What about the clinical symptoms ([3]; person, after three weeks of treatment) of the same compound?
**A.** Its clinical symptoms is “improvement in abdominal pain, ascites, and pulmonary function”.

**Q.** And the “decrease in the size of the hepatic metastases on CT scans” value [3, 12]?
**A.** The value was > 50%.

**Q.** What about the “pulmonary metastases on CT scans” value [3, 12] of the same compound?
**A.** The value was “complete resolution”.

**Q.** And the “anti-tumor effective dose in animals” value [4]?
**A.** The value was ~10 mg/kg/day.

**Q.** And the “total tumor burden (cumulative surface area), control relative to gossypol group” value ([5]; 12th week, FIG. 2)?
**A.** Its value is “twice”.

**Q.** And the “effect on body weights” value ([5]; 12 weeks of gossypol treatment)?
**A.** The value was “no significant effect”.

**Q.** And the “body weight at the end of the study period (mean ± SD)” value ([5]; after 12 weeks, 30 mg/kg/day oral)?
**A.** Its value is 30.9 ± 3.6 g.

**Q.** And the “number of deaths in the gossypol-treated group” value ([5]; during 12 weeks of treatment, group of 24, 10 deaths in control group)?
**A.** Its value is “two”.

**Q.** And the “Mean tumor size (mean ± SE)” value ([5]; week 0, 30 mg/kg/day oral)?
**A.** The value was 0.08 ± 0.02 cm^2.

**Q.** And the Total deaths ([5]; week 0, 30 mg/kg/day oral)?
**A.** The Total deaths was 0%.

**Q.** And the Prevalence of tumor ([5]; week 0, 30 mg/kg/day oral, 30 mg/kg/day)?
**A.** The Prevalence of tumor was 72%.

**Q.** What about the Prevalence of tumor ([5]; week 0, 30 mg/kg/day oral, listed as gossypol, 30 mg/kg/day) of the same compound?
**A.** Its Prevalence of tumor is 71%.

**Q.** And the “Mean tumor size (mean ± SE)” value ([5]; week 1, 30 mg/kg/day oral)?
**A.** Its value is 0.07 ± 0.02 cm^2.

**Q.** What about the Prevalence of tumor ([5]; week 1, 30 mg/kg/day oral) of the same compound?
**A.** Its Prevalence of tumor is 63%.

**Q.** And the Total deaths ([5]; week 1, 30 mg/kg/day oral)?
**A.** Its Total deaths is 0%.

**Q.** And the “Mean tumor size (mean ± SE)” value ([5]; week 2, 30 mg/kg/day oral)?
**A.** Its value is 0.12 ± 0.04^a cm^2.

**Q.** What about the Prevalence of tumor ([5]; week 2, 30 mg/kg/day oral) of the same compound?
**A.** Its Prevalence of tumor is 50%.

**Q.** What about the Total deaths ([5]; week 2, 30 mg/kg/day oral) of the same compound?
**A.** The Total deaths was 0%.

**Q.** What about the “Mean tumor size (mean ± SE)” value ([5]; week 3, 30 mg/kg/day oral) of the same compound?
**A.** The value was 0.15 ± 0.05^a cm^2.

**Q.** And the Prevalence of tumor ([5]; week 3, 30 mg/kg/day oral)?
**A.** Its Prevalence of tumor is 54%.

**Q.** And the Total deaths ([5]; week 3, 30 mg/kg/day oral)?
**A.** Its Total deaths is 0%.

**Q.** What about the “Mean tumor size (mean ± SE)” value ([5]; week 4, 30 mg/kg/day oral) of the same compound?
**A.** Its value is 0.20 ± 0.07^a cm^2.

**Q.** And the Prevalence of tumor ([5]; week 4, 30 mg/kg/day oral)?
**A.** The Prevalence of tumor was 50%.

**Q.** What about the Total deaths ([5]; week 4, 30 mg/kg/day oral) of the same compound?
**A.** Its Total deaths is 0%.

**Q.** And the “Mean tumor size (mean ± SE)” value ([5]; week 5, 30 mg/kg/day oral)?
**A.** Its value is 0.28 ± 0.08^a cm^2.

**Q.** And the Prevalence of tumor ([5]; week 5, 30 mg/kg/day oral)?
**A.** The Prevalence of tumor was 58%.

**Q.** What about the Total deaths ([5]; week 5, 30 mg/kg/day oral) of the same compound?
**A.** Its Total deaths is 0%.

**Q.** And the “Mean tumor size (mean ± SE)” value ([5]; week 6, 30 mg/kg/day oral)?
**A.** The value was 0.32 ± 0.10^a cm^2.

**Q.** What about the Prevalence of tumor ([5]; week 6, 30 mg/kg/day oral) of the same compound?
**A.** Its Prevalence of tumor is 58%.

**Q.** What about the Total deaths ([5]; week 6, 30 mg/kg/day oral) of the same compound?
**A.** The Total deaths was 0%.

**Q.** What about the “Mean tumor size (mean ± SE)” value ([5]; week 7, 30 mg/kg/day oral) of the same compound?
**A.** Its value is 0.38 ± 0.12^a cm^2.

**Q.** And the Prevalence of tumor ([5]; week 7, 30 mg/kg/day oral)?
**A.** The Prevalence of tumor was 58%.

**Q.** And the Total deaths ([5]; week 7, 30 mg/kg/day oral)?
**A.** Its Total deaths is 0%.

**Q.** And the “Mean tumor size (mean ± SE)” value ([5]; week 8, 30 mg/kg/day oral)?
**A.** Its value is 0.45 ± 0.14^a cm^2.

**Q.** What about the Prevalence of tumor ([5]; week 8, 30 mg/kg/day oral) of the same compound?
**A.** Its Prevalence of tumor is 58%.

**Q.** What about the Total deaths ([5]; week 8, 30 mg/kg/day oral) of the same compound?
**A.** The Total deaths was 0%.

**Q.** What about the “Mean tumor size (mean ± SE)” value ([5]; week 9, 30 mg/kg/day oral) of the same compound?
**A.** The value was 0.50 ± 0.15^a cm^2.

**Q.** What about the Prevalence of tumor ([5]; week 9, 30 mg/kg/day oral) of the same compound?
**A.** Its Prevalence of tumor is 54%.

**Q.** What about the Total deaths ([5]; week 9, 30 mg/kg/day oral) of the same compound?
**A.** Its Total deaths is 0%.

**Q.** And the “Mean tumor size (mean ± SE)” value ([5]; week 10, 30 mg/kg/day oral)?
**A.** The value was 0.59 ± 0.18^a cm^2.

**Q.** And the Prevalence of tumor ([5]; week 10, 30 mg/kg/day oral)?
**A.** Its Prevalence of tumor is 54%.

**Q.** And the Total deaths ([5]; week 10, 30 mg/kg/day oral)?
**A.** Its Total deaths is 0%.

**Q.** And the “Mean tumor size (mean ± SE)” value ([5]; week 11, 30 mg/kg/day oral)?
**A.** Its value is 0.68 ± 0.21^a cm^2.

**Q.** And the Prevalence of tumor ([5]; week 11, 30 mg/kg/day oral)?
**A.** Its Prevalence of tumor is 54%.

**Q.** And the Total deaths ([5]; week 11, 30 mg/kg/day oral)?
**A.** The Total deaths was 0%.

**Q.** What about the “Mean tumor size (mean ± SE)” value ([5]; week 12, 30 mg/kg/day oral) of the same compound?
**A.** Its value is 0.81 ± 0.25 (n = 22) cm^2.

**Q.** And the Prevalence of tumor ([5]; week 12, 30 mg/kg/day oral)?
**A.** The Prevalence of tumor was 54%.

**Q.** And the Total deaths ([5]; week 12, 30 mg/kg/day oral)?
**A.** Its Total deaths is 8.3%.

**Q.** And the “higher doses shown to be lethal” value [6]?
**A.** Its value is 0.8 mg/mouse and 1.6 mg/mouse.

**Q.** Which “tumor course under treatment” value [7] does the source give for `Cc1ccc(C(=O)Nc2ccc(S(=O)(=O)O)c3cc(S(=O)(=O)O)cc(S(=O)(=O)O)c23)cc1NC(=O)c1cccc(NC(=O)Nc2cccc(C(=O)Nc3cc(C(=O)Nc4ccc(S(=O)(=O)O)c5cc(S(=O)(=O)O)cc(S(=O)(=O)O)c45)ccc3C)c2)c1` [Suramin] here?
**A.** Its value is “progressed”.
